These results are taken from US12479847B2 (DANA-FARBER CANCER INSTITUTE, INC., priority 2019, dated 2025).

Holding throughout (experiment): KINOMEscan (ScanMAX) kinase profiling
Holding throughout (type): binding

Experiment [1] deals with T1, panel of 468 kinases (Homo sapiens, UniProt Q9Y5S2).
T1 construct: purchased KINOMEscan (ScanMAX) service
To be noted: MRCKB; 1 μM; read-out: % control. The protocol: (§1) The kinase selectivity of inventive compounds 12, 75, and 77 was evaluated by KINOMEscan®. KINOMEscan® (ScanMAX™) analysis was performed against a near comprehensive panel of 468 kinases. The control percentage (% control) for inventive compounds at 1 μM in DMSO was determined by Equation 1: % control=(inventive compound−positive control)/(negative control−positive control)×100%, Equation 1
(§2) wherein the positive control is a compound with a % control value of 0% relative light units (RLU), and the negative control (i.e., DMSO) has % control value of 100% RLU. The enzyme selectivity in the present invention is defined as follows: inventive compounds are considered active for an enzyme when the observed % control is less than 35% (<35%).

Experiment [2] deals with T2, panel of 468 kinases (Homo sapiens, UniProt P36888).
T2 construct: purchased KINOMEscan (ScanMAX) service
T2 sequence (P36888 27-993): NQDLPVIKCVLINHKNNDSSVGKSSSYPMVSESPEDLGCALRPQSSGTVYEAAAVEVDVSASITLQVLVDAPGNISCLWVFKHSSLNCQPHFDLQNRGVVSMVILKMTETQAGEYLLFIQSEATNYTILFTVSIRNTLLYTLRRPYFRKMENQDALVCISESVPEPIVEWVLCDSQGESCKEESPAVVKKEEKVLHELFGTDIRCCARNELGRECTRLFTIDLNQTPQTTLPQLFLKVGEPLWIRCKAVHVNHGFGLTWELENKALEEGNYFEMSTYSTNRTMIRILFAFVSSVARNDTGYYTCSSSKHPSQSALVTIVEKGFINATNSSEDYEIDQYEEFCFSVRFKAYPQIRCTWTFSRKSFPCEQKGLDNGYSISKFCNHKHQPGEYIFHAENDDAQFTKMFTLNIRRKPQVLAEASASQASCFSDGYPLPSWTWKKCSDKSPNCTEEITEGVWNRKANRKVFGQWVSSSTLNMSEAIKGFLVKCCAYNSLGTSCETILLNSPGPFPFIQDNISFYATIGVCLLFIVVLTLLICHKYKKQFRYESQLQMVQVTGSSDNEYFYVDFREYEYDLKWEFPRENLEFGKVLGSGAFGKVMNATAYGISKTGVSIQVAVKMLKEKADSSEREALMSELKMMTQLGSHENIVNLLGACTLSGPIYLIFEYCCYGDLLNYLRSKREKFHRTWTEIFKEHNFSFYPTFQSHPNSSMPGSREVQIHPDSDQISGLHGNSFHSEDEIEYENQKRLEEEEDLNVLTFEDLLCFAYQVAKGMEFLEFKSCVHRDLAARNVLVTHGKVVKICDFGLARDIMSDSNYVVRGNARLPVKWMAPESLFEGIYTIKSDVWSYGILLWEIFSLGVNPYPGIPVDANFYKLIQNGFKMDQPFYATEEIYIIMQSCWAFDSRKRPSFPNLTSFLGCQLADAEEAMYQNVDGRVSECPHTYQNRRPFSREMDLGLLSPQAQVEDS
As to conditions: 1 μM, read-out: % control. The protocol:
as §1, §2

Experiment [3] has as its target T3, panel of 468 kinases (Homo sapiens, UniProt Q14012).
T3 construct: purchased KINOMEscan (ScanMAX) service
As to conditions: CAMK1; 1 μM; read-out: % control. The procedure: as §1, §2

In experiment [4] the target is T4, panel of 468 kinases (Homo sapiens, UniProt Q8NE63).
T4 construct: purchased KINOMEscan (ScanMAX) service
T4 sequence (Q8NE63 1-616): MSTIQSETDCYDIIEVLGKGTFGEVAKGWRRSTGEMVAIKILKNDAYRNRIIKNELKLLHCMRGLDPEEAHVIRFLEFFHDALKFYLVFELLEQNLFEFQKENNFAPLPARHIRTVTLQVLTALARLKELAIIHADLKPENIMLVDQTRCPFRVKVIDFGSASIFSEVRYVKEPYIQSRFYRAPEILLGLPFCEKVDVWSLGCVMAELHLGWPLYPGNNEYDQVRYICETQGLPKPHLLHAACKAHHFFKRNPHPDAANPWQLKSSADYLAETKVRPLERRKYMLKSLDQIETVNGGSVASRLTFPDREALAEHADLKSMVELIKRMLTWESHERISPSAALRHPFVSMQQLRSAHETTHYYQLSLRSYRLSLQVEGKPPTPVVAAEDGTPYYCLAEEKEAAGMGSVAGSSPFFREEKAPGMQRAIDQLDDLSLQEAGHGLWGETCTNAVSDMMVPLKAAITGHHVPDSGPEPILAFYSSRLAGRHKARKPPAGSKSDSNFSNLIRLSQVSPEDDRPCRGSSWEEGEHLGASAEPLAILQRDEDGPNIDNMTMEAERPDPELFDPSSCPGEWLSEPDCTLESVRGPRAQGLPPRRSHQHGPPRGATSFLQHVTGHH
To be noted: HIPK4; 1 μM; read-out: % control. The procedure:
as §1, §2

For experiment [5], the target named is T5, panel of 468 kinases (Homo sapiens, UniProt Q9BWU1).
T5 construct: purchased KINOMEscan (ScanMAX) service
T5 sequence (Q9BWU1 whole entry): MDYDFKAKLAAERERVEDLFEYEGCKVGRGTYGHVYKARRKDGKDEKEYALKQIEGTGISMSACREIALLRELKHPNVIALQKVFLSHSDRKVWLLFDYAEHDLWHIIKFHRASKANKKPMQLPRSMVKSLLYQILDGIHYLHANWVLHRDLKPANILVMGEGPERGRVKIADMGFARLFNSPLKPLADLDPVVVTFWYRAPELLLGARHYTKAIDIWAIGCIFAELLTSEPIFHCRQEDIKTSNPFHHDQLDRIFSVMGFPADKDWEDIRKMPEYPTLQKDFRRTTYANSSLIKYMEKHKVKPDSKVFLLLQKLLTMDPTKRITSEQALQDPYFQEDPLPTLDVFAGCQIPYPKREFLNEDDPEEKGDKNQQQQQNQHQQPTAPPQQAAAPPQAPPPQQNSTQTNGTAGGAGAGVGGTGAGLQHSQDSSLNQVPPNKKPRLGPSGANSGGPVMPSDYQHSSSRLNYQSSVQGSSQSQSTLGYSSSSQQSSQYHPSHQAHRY
To be noted: CDK11; 1 μM; read-out: % control. The procedure:
as §1, §2

Experiment [6] addresses T6, panel of 468 kinases (Homo sapiens, UniProt P12931).
T6 construct: purchased KINOMEscan (ScanMAX) service
As to conditions: SRC; 1 μM; read-out: % control. The protocol:
as §1, §2

Experiment [7] concerns the target T7, panel of 468 kinases (Homo sapiens, UniProt Q6PHR2).
T7 construct: purchased KINOMEscan (ScanMAX) service
T7 sequence (Q6PHR2 1-472): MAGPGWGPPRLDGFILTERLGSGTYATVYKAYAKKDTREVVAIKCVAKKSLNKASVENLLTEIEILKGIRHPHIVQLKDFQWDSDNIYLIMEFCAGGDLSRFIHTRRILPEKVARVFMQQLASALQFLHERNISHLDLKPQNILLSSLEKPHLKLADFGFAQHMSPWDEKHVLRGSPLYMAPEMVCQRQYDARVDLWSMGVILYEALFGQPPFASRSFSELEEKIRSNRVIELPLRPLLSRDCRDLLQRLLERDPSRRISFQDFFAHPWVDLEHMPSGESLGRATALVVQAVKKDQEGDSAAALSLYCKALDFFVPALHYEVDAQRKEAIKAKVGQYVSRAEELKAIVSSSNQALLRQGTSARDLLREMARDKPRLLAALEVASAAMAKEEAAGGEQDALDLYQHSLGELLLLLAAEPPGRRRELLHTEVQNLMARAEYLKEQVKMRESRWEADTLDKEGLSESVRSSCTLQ
To be noted: ULK3; 1 μM; read-out: % control. The protocol:
as §1, §2

The target in experiment [8] is T8, panel of 468 kinases (Homo sapiens, UniProt P31749).
T8 construct: purchased KINOMEscan (ScanMAX) service
T8 sequence (P31749 whole entry): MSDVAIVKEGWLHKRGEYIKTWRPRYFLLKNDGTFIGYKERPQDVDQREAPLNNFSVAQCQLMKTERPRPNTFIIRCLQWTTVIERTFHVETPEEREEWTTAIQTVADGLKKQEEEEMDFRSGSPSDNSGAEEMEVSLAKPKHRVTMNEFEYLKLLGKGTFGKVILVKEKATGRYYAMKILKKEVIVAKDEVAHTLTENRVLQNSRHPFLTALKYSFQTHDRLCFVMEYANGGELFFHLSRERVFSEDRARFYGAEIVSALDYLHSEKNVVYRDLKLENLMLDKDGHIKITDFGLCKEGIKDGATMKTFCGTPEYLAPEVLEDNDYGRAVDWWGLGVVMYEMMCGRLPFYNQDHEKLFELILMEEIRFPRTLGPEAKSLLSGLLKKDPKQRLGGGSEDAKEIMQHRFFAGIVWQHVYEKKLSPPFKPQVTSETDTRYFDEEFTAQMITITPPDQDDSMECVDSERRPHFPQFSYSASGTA
To be noted: AKT1; 1 μM; read-out: % control. The protocol:
as §1, §2

Experiment [9] concerns the target T9, panel of 468 kinases (Homo sapiens, UniProt P53667).
T9 construct: purchased KINOMEscan (ScanMAX) service
As to conditions: LIMK1; 1 μM; read-out: % control. The procedure: as §1, §2

Read-outs that look alike come from different tables or passages of the source.

T9 sequence (P53667 whole entry): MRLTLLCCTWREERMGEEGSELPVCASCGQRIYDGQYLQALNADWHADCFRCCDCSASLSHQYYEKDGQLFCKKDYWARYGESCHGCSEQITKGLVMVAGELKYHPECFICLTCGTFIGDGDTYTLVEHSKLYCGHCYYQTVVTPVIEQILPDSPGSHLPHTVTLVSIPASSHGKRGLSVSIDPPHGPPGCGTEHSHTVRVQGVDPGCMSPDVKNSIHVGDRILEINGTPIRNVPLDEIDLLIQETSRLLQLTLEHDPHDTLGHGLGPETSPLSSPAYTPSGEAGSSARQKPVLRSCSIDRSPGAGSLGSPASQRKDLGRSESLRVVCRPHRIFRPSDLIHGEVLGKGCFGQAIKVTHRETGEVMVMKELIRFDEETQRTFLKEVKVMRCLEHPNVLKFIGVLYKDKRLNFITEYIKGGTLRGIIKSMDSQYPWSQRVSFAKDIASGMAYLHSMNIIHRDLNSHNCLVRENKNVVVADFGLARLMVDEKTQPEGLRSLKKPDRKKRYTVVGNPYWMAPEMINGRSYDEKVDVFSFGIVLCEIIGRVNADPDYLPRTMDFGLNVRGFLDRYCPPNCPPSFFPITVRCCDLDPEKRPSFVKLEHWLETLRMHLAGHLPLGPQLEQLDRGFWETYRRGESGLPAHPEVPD
T6 sequence (P12931 whole entry): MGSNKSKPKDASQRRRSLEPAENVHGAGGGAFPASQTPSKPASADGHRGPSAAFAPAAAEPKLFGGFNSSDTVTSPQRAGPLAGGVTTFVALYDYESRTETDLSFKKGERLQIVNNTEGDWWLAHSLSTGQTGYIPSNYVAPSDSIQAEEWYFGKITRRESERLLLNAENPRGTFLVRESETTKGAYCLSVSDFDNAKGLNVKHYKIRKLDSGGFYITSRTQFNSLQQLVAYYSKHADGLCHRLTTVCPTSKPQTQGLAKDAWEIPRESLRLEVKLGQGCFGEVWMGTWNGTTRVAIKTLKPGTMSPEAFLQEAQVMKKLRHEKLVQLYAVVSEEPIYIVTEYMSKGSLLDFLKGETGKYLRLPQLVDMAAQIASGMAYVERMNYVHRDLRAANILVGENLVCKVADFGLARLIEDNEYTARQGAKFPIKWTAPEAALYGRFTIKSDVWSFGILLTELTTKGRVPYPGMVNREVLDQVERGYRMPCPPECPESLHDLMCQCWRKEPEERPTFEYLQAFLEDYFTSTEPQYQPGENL
T3 sequence (Q14012 whole entry): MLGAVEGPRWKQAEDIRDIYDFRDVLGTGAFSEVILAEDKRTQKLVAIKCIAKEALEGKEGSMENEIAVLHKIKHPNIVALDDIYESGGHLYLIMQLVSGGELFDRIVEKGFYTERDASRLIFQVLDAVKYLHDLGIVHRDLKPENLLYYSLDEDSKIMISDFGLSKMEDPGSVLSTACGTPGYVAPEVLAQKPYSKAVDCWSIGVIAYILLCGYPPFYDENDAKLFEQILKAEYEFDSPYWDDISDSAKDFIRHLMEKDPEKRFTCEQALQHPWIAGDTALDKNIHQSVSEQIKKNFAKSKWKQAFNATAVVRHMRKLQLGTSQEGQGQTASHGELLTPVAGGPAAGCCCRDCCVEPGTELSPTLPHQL
T1 sequence (Q9Y5S2 whole entry): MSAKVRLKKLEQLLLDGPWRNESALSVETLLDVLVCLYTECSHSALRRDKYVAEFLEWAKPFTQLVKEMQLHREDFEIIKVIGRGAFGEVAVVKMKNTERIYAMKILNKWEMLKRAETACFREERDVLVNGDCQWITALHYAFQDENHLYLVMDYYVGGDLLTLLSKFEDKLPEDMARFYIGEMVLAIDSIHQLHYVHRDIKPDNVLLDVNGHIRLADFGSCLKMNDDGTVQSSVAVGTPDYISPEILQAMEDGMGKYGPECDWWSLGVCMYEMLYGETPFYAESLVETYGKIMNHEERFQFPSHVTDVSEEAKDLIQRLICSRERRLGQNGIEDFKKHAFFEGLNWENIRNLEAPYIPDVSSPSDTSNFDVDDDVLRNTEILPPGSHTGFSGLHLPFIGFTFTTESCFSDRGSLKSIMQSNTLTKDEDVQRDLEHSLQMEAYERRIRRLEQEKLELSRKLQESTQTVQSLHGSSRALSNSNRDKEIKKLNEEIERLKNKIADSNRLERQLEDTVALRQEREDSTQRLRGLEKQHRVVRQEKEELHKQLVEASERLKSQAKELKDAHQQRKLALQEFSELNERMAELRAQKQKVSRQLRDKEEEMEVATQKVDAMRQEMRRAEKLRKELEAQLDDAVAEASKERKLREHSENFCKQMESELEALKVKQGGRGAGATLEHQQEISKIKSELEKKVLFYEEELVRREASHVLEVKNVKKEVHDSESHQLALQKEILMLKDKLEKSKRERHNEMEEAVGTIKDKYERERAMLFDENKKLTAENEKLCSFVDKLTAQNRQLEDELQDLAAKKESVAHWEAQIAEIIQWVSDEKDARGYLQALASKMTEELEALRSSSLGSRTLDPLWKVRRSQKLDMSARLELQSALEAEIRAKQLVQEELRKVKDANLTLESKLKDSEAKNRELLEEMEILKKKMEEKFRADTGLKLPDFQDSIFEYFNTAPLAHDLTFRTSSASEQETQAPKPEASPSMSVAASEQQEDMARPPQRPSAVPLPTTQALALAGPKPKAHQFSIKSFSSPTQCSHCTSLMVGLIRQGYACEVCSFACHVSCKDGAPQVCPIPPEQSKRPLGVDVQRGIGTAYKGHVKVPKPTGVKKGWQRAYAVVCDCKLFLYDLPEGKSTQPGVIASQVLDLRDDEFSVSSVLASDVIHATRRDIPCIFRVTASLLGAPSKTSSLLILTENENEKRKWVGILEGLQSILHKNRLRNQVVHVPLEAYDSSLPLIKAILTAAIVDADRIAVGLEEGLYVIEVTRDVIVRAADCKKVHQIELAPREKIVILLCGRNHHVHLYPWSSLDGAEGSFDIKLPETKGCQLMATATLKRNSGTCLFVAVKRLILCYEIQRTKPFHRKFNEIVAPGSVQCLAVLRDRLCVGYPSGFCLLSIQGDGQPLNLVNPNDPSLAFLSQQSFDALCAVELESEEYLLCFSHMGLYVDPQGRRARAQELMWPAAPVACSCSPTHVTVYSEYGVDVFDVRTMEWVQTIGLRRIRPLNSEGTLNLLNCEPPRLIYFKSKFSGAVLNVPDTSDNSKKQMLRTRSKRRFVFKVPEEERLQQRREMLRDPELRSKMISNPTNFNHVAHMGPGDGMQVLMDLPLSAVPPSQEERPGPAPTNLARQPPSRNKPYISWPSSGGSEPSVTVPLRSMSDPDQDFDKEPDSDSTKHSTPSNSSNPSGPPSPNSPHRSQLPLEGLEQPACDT

Consider `CNc1nc(Nc2ccc(C(=O)N3CCC(N4CCOCC4)CC3)c3c2OCO3)nc2[nH]cc(Cl)c12` [Compound 75, (7-((5-chloro-4-(methylamino)-7H-pyrrolo[2,3-d]pyrimidin-2-yl)amino)benzo[d][1,3]dioxol-4-yl)(4-morpholinopiperidin-1-yl)methanone], for which the remaining binding at 1 µM was 100% in experiment [1]; 83% in experiment [2] (FLT3-autoinhibited); 40% in [2] (FLT3); 75% in experiment [3]; 97% in experiment [4]; 98% in experiment [5]. Moreover, the remaining binding at 1 µM in [6] came out at 100%; in experiment [7], 7.6%; in experiment [8] it was 100%; in experiment [9], 100%.

For the compound `CNc1nc(Nc2ccc(P3(=O)CCN(C4CCOCC4)CC3)cc2OC)nc2[nH]cc(Cl)c12` [Compound 77, 4-(4-((5-chloro-4-(methylamino)-7H-pyrrolo[2,3-d]pyrimidin-2-yl)amino)-3-methoxyphenyl)-1-(tetrahydro-2H-pyran-4-yl)-1,4-azaphosphinane 4-oxide], the remaining binding at 1 µM in experiment [1] turned out to be 100%; in experiment [2] (FLT3-autoinhibited) it was 94%; in experiment [2] (FLT3) it was 86%; in experiment [3] it was 67%; in experiment [4] it was 99%; in [5], 100%. Besides, the remaining binding at 1 µM in experiment [6] was determined as 100%; in experiment [7] it was 65%; in [8] it was 100%; in experiment [9], 100%.

As to `CNc1nc(Nc2ccc(S(=O)(=O)N3CCC(N4CCOCC4)CC3)cc2OC)nc2[nH]cc(Cl)c12` [Compound 12, 5-chloro-N2-(2-methoxy-4-((4-morpholinopiperidin-1-yl)sulfonyl)phenyl)-N4-methyl-7H-pyrrolo[2,3-d]pyrimidine-2,4-diamine], the remaining binding at 1 µM was 100% in experiment [1]; 87% in experiment [2] (FLT3-autoinhibited); 100% in experiment [2] (FLT3); 100% in experiment [3]; 100% in [4]; 100% in experiment [5]. For the same compound, the remaining binding at 1 µM in [6] came out at 100%; in experiment [7] it was 65%; in experiment [8] it was 100%; in [9], 100%.
